What all share (assay): NCI tumour cell line growth inhibition, 48 h
Experiment [1] relates to RPMI-8226 leukemia.
For experiment [2], the system named is UO-31 renal.
In experiment [3] the test system is DU-145 prostate.
In experiment [4] the test system is M14 melanoma.
Experiment [5] concerns MDA-MB-231 breast.
In experiment [6] the test system is HCT-15 colon.
The subject of experiment [7] is K-562 leukemia.
Experiment [8] concerns A498 renal.

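Interpolation was linear, between the two tested concentrations surrounding the appropriate level; five concentrations were tested over 48 hours in 96-well plates. GI50 = concentration required for 50% inhibition of growth. TGI is the concentration that stops growth completely.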 Bounds are passed on as bounds.

Turning to `CC(=Nc1ccccc1)C1=C(O)C(Cc2cccc(F)c2)NC1=O` (stereo not drawn), the GI50 in experiment [1] was 0.0525 µM; in experiment [2], 0.0789 µM; in experiment [3] it was 0.086 µM; in experiment [4] it was 0.0487 µM; in experiment [5] it was 0.178 µM; in experiment [6], 0.0444 µM. Moreover, the GI50 in experiment [7] was 0.0412 µM; in experiment [8], 0.0356 µM. Besides, the TGI was greater than 100 µM in experiment [1]; greater than 100 µM in experiment [2]; 10.2 µM in experiment [3]; greater than 100 µM in experiment [4]; 1.93 µM in experiment [5]; greater than 100 µM in experiment [6]. Besides, the results for the TGI in experiment [7] and in experiment [8] were greater than 100 µM and 0.426 µM, respectively.

On to `O=C(O)C(Br)C(Br)C(=O)O` (stereo not drawn), for which the TGI in experiment [1], in experiment [2], in experiment [3], in experiment [4], in experiment [5] and in experiment [6] was greater than 100 µM in each case. Moreover, the TGI in experiment [7] and in experiment [8] was greater than 100 µM throughout.

In the case of `CCC#CC[C@H](O)C/C=C1/C(=O)C=C[C@@H]1C/C=C\CCCC(=O)OC`, the GI50 in experiment [1] was 0.657 µM; in experiment [2], 0.864 µM; in experiment [3], 1.75 µM; in experiment [4], 1.32 µM; in experiment [5] it was 1.95 µM; in experiment [6], 1.17 µM. Besides, the GI50 in experiment [7] was 1.13 µM; in experiment [8] it was 6.82 µM. Besides, the TGI in experiment [1] amounted to 2.86 µM; in experiment [2], 1.66 µM; in experiment [3], 7.26 µM; in experiment [4], 5.12 µM; in experiment [5], 7.78 µM; in experiment [6] it was 5.09 µM. The TGI in experiment [7] was found to be 50 µM; in experiment [8] it was 13.7 µM.

`COc1ccc(OC)c(NC(=O)c2cccc(NC3=C(Cl)C(=O)N(Cc4ccccc4)C3=O)c2)c1`: the GI50 in experiment [1] is 15.9 µM; in experiment [2] it was greater than 90.3 µM; in experiment [3], 27.8 µM; in experiment [4] it was greater than 75 µM; in experiment [5], greater than 35.7 µM; in experiment [6], greater than 100 µM. Also, the GI50 in experiment [7] is 35.4 µM. For the same molecule, the TGI in experiment [1] was greater than 79 µM; in experiment [2], greater than 100 µM; in experiment [3], greater than 100 µM; in experiment [4], greater than 100 µM; in experiment [5], greater than 54.1 µM; in experiment [6], greater than 100 µM. The TGI in experiment [7] is greater than 100 µM.

As for `Cc1c(NC(=O)CCl)c(=O)oc2c(C)c3occc(=O)c3cc12`, the TGI in experiment [1] amounted to 60.1 µM; in experiment [2] it was 22.4 µM; in experiment [3], 74.5 µM; in experiment [4], 26 µM; in experiment [7] it was 52 µM; in experiment [8], 31.7 µM.

Consider `Cc1cc(C(=O)Nc2cc(Oc3ccc4nc(NC(=O)C5CC5)cn4n3)ccc2C)n(C)n1`, for which the GI50 in experiment [1] was greater than 10 µM; in experiment [2], greater than 10 µM; in experiment [3], greater than 10 µM; in experiment [4] it was 5.51 µM; in experiment [5], greater than 10 µM; in experiment [6] it was 6.49 µM. Further, the GI50 in experiment [7] was 0.555 µM; in experiment [8], greater than 10 µM. Besides, the TGI in experiment [1], in experiment [2], in experiment [3], in experiment [4], in experiment [5] and in experiment [6] was greater than 10 µM in each case. Also, the TGI in experiment [7] and in experiment [8] was greater than 10 µM throughout.

As for `CCCCC[C@H]1CC=C2C(=O)C=C[C@@H]2CC=CCCCC(=O)O[C@@H](CCCCC)CC=C2C(=O)C=C[C@@H]2CC=CCCCC(=O)O[C@@H](CCCCC)CC=C2C(=O)C=C[C@@H]2CC=CCCCC(=O)O1`, the GI50 in experiment [1] was 0.256 µM; in experiment [2] it was 0.457 µM; in experiment [3], 0.353 µM; in experiment [4] it was 0.279 µM; in experiment [5] it was 0.249 µM; in experiment [6], 0.718 µM. Besides, the GI50 in experiment [7] is 0.317 µM; in experiment [8], 0.75 µM. The TGI came out at 0.821 µM in experiment [1]; 1.63 µM in experiment [2]; 2.52 µM in experiment [3]; 1.79 µM in experiment [4]; 0.697 µM in experiment [5]; 5.73 µM in experiment [6]. The TGI was greater than 8.75 µM in experiment [7] and 2.41 µM in experiment [8].

`CCN(CC)CCC(=O)OC1C(C)=CC(C)C(=O)CC(C(C)CC2CCC(O)C(OC)C2)OC(=O)C2CCCCN2C(=O)C(=O)[C@@]2(O)OC(CCC2C)CC(OC)\C(C)=C/C=C/C=C/C(C)CC(C)C(=O)C1OC` (stereo partly drawn): the TGI stood at 43.2 µM in experiment [1]; 19.7 µM in experiment [3]; 22.6 µM in experiment [4]; 26.7 µM in experiment [5]; 20.6 µM in experiment [6]; 21.4 µM in experiment [7]. The molecule also gave a TGI in experiment [8] of 17.6 µM.

With `O=C(O)CNc1ccc(Cl)c(Cl)c1`, the TGI in experiment [1] was 55.2 µM; in experiment [2] it was 71.1 µM; in experiment [3], greater than 100 µM; in experiment [4], greater than 100 µM; in experiment [5], greater than 100 µM; in experiment [6] it was 95.3 µM. For the same molecule, the results for the TGI in experiment [7] and in experiment [8] were 78.4 µM and 86.5 µM, respectively.

`O=C1CSC(c2ccc(-c3nc4ccccc4[nH]3)cc2)=N1`: the GI50 in experiment [1] is 11.7 µM; in experiment [2] it was 19.8 µM; in experiment [3], 31.4 µM; in experiment [4], 19.7 µM; in experiment [5] it was greater than 50 µM; in experiment [6], 16.7 µM. For the same molecule, the GI50 in experiment [7] is 5.64 µM. The TGI in experiment [1], in experiment [2], in experiment [3], in experiment [4], in experiment [5] and in experiment [6] was greater than 50 µM in each case. The molecule also showed a TGI in experiment [7] of 17.5 µM.

`CCOc1cc(C(=O)O)c2c(ccc3ccc(OC)c(OC)c32)c1OC`: the TGI in experiment [1], in experiment [2], in experiment [3], in experiment [4], in experiment [5] and in experiment [6] was greater than 100 µM throughout. For the same molecule, the TGI in experiment [7] was greater than 100 µM.

The values are drawn from PubChem BioAssay (NCI).
